The results in this text go back to paper PMC11990103, “Anticancer Activity and Safety Profile of Novel 1-(4-Fluorophenoxyacetyl)-4-substituted Thio/Semicarbazide Derivatives” (Molecules, 2025).

Structures are written as SMILES.

Common to all, as to assay type: cell-based, human
Assay [1] relates to BJ fibroblasts. The assay can be described thus: MTT cytotoxicity assay, normal cells. Particulars: 48 h treatment, read-out: IC50 BJ (fibroblast). On the procedure: (§1) These cancer cell lines comprised prostate cancer (PC-3, DU-145, LNCaP), melanoma (SK-MEL28, A375, G-361), breast cancer (MCF-7, MDA-MB-231), and lung cancer (NCI-H1563). The MTT assay was carried out across a wide range of concentrations for 48 h.
(§2) The research was conducted on one primary cell line: BJ (fibroblast) and four types of cancerous ones: three prostate cancer cell lines (PC-3, DU-145, LNCaP); 3 Melanoma cell lines (MEL-28, A375, G-361); 2 breast cancer cell lines (MCF-7, MDA-MB-23) and one lung cancer cell line (NCI-H1563). All cell lines were obtained from the American Type Culture Collection (ATCC, Manassas, VA, USA) and were grown in media (Corning, New York, NY, USA) according to ATCC guidelines. The culture media was enriched with 10% heat-inactivated fetal bovine serum (Life Technologies, Carlsbad, CA, USA) and antibiotics: penicillin (100 units) and streptomycin (100 μg/mL) from Sigma-Aldrich (St. Louis, MO, USA). The cells were incubated at 37 °C with 5% CO2 in air.
(§3) The cytotoxic analysis of thiosemicarbazides (TSC) (AB1–AB6) and semicarbazides (SC) (AB7–AB12) was conducted in various concentrations. […] The cells were treated with compounds or DMSO as a vehicle in control cultures for 48h. IC50 values were determined using the AAT Bioquest IC50 calculator (AAT Bioquest, Inc., Pleasanton, CA, USA, Quest Graph™ EC50 Calculator. https://www.aatbio.com/tools/ec50-calculator) (accessed on 7 October 2024).
(§4) The cytotoxic activity of the thiosemicarbazides and semicarbazides was measured using the MTT colorimetric assay (MTT Cell Proliferation Assay Kit—Invitrogen, Waltham, MA, USA). The cells were seeded in the 96-well plates at a density of 1.5 × 10^5 cells/mL. After reaching 70–80% of confluence, the tested compounds in a wide range of concentrations were added. Plates were incubated for 48 h at 37 °C in 5% CO2 air. Then, […] tetrazolium salt (3-(4,5-dimethylthiazol-2-yl)-2,5-diphenyltetrazolium bromide)—MTT reagent (0.5 mg/mL) dissolved in PBS was added to each well for 4 h. The MTT solution was then removed from above the water-insoluble purple formazan crystals, which were then dissolved in DMSO (dimethyl sulfoxide, […]; POCH, Gliwice, Poland). The absorbance value of obtained solutions was measured using a PowerWave ™ microplate spectrophotometer (Bio-Tek Instruments, Winooski, VT, USA) at a wavelength of 570 nm. Each cytotoxicity assay was repeated three times in triplicates.
(Formazan colour is commonly taken as a measure of viable cells.)

Assay [2] relates to A375 melanoma cell line. The assay can be described thus: MTT cytotoxicity assay. Particulars: 48 h treatment. On the procedure:
as §1, §2, §3, §4

Assay [3] has as its system DU-145 prostate cancer cell line. The assay can be described thus: MTT cytotoxicity assay. The conditions noted are these: 48 h treatment. The procedure:
as §1, §2, §3, §4

Assay [4] has as its system G-361 melanoma cell line. Kind of assay: MTT cytotoxicity assay. The procedure:
as §1, §2, §3, §4

Assay [5] concerns LNCaP prostate cancer cell line. The assay can be described thus: MTT cytotoxicity assay. On the procedure:
as §1, §2, §3, §4

Assay [6] concerns MCF-7 breast cancer cell line. Kind of assay: MTT cytotoxicity assay. Particulars: 48 h treatment. The procedure: as §1, §2, §3, §4
Assay [7] has as its system MDA-MB-231 breast cancer cell line. Kind of assay: MTT cytotoxicity assay. The conditions noted are these: 48 h treatment. On the procedure:
as §1, §2, §3, §4

Assay [8] has as its system NCI-H1563 lung cancer cell line. The assay can be described thus: MTT cytotoxicity assay. Particulars: 48 h treatment. On the procedure: as §1, §2, §3, §4
Assay [9] deals with PC-3 prostate cancer cell line. The assay can be described thus: MTT cytotoxicity assay. Particulars: 48 h treatment. On the procedure: as §1, §2, §3, §4
The test system of assay [10] is SK-MEL28 melanoma cell line. Kind of assay: MTT cytotoxicity assay. The conditions noted are these: 48 h treatment. The procedure: as §1, §2, §3, §4
For assay [11], the system named is G-361 melanoma cells. Kind of assay: Cell cycle analysis by image cytometry (NucleoCounter NC-3000). The conditions noted are these: G-361, 48 h, AB2 at concentration corresponding to IC50. On the procedure: (§5) To further evaluate the anticancer activity of thiosemicarbazide derivative AB2 in G-361 and LNCaP cell lines, cell cycle analysis by image cytometry and detection of apoptosis using annexin V and propidium iodide was performed. Analyses of the action of AB2 on the distribution of cells in different phases of the cell cycle indicated a significant increase in the population of cells in the sub-G1 phase compared to the control cultures, in both tested prostate and melanoma cells. This population increased from 7% and 5% in control cells to 26% and 27% after exposure to AB2 in LNCaP and G-361 cells, respectively (Figure 8A). The increase in the cell population in the sub-G1 phase indicates the presence of apoptosis or necrosis in the investigated cells and not a significant inhibition of cell proliferation, i.e., a cytostatic effect.
(§6) Cell cycle analysis was assessed with the NucleoCounter NC-3000 (ChemoMetec, Allerod, Denmark) following the 2-Step Cell Cycle Assay protocol recommended by the manufacturer. The research was performed after 48 h incubation of prostate cancer cells (LNCaP) and melanoma cells (G-361) with AB2 compound in a concentration corresponding to IC50 value. Analysis was performed in line with the previously described methodology.

The subject of assay [12] is LNCaP prostate cancer cells. Described as above. Particulars: 48 h, AB2 at concentration corresponding to IC50. On the procedure: as §5, §6
For assay [13], the system named is G-361 melanoma cells. The assay can be described thus: Apoptosis detection, annexin V and propidium iodide. The conditions noted are these: G-361, 48 h, concentration approximate to IC50. On the procedure: as §5
(§7) In prostate cancer cells, the percentage of early apoptotic cells substantially elevated after AB2 treatment compared with the control group, indicating the initial activation of the apoptotic pathway. […] The percentage of cells in the early phase of apoptosis is approximately 36% and 28% in LNCaP and G-361 cells, respectively (Figure 8B). At the same time, the population of cells in late apoptosis increased in both cell lines, implying a progression of the apoptotic process after AB2 exposure. […]

For assay [14], the system named is LNCaP prostate cancer cells. The description is as above. Particulars: 48 h, concentration approximate to IC50. The procedure:
as §5, §7

With `O=C(COc1ccc(F)cc1)NNC(=S)Nc1ccccc1Cl` [AB2], the half-maximal inhibitory concentration (IC50) (commonly the midpoint of a concentration-inhibition curve) in assay [1] was 453 µM; in assay [2], 429 µM; in assay [3], greater than 500 µM; in [4] (MTT, 48 h treatment) it was 223 µM; in assay [5] (MTT, 48 h treatment) it was 108 µM; in assay [6], greater than 500 µM. The 50% inhibitory concentration (IC50) in [7] was greater than 500 µM; in assay [8], greater than 500 µM; in [9], greater than 500 µM; in assay [10], 470 µM. Moreover, the “selectivity index (SI), G-361” value in assay [4] (IC50 normal cells (BJ) divided by IC50 G-361) was found to be 2.04. In assay [5] (IC50 normal cells (BJ) divided by IC50 LNCaP), the “selectivity index (SI), LNCaP” value is 4.19. For the same molecule, the “cells in sub-G1 phase (M1)” value in assay [11] came to 27%; in assay [12], 26%. Also, the “early apoptotic cells (Q1lr)” value in [13] is given as roughly 28%. The “late apoptotic cells (Q1ur)” value in [14] is listed as 37%.
